Measured values: patent US8247211B2, “Glycopeptide antibiotics” (American Cyanamid Company, priority 2001, dated 2012)
Converted amounts (≈) assume the structure as drawn.

How the values were obtained:
Experiment in all cases: In vitro antibacterial evaluation: minimum inhibitory concentration (MIC), broth dilution method
Format in all cases: cell-based
Enterococcus sp. = settings: 18 hours at 35° C.
Method in brief: (§1)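 Susceptibility determined by NCCLS-recommended broth dilution (M7-A2), Muller-Hinton II […]. Concentration span 64-0.06 μg/mL, inoculum 5×10^5 CFU/mL. Isolates include strains resistant to methicillin, penicillin and/or vancomycin.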

Escherichia coli = settings: 18 hours at 35° C.
Method in brief: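 NCCLS M7-A2 broth dilution; Muller-Hinton II […]; 5×10^5 CFU/mL; 64-0.06 μg/mL. MIC = lowest concentration with no growth.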

Staphylococcus sp. = tested on: Staphylococcus sp.
Method in brief: as §1

Streptococcus sp. = settings: 18 hours at 35° C.
Method in brief: as §1

[1] = broth dilution, inoculum 5×10^5 CFU/mL

MIC Enterococcus avium (GC 4558) (Enterococcus sp.; Enterococcus avium (GC 4558)): 32 µg/mL (≈ 20.7 µM)
MIC Enterococcus faecalis (ATCC 29212) (Enterococcus sp.; Enterococcus faecalis (ATCC 29212)): 32 µg/mL (≈ 20.7 µM)
MIC Enterococcus faecalis (GC 2242) (Enterococcus sp.; Enterococcus faecalis (GC 2242)): 32 µg/mL (≈ 20.7 µM)
MIC Enterococcus faecalis (GC 2691) (Enterococcus sp.; Enterococcus faecalis (GC 2691)): 32 µg/mL (≈ 20.7 µM)
MIC Enterococcus faecalis (GC 3059) (Enterococcus sp.; Enterococcus faecalis (GC 3059)): 32 µg/mL (≈ 20.7 µM)
MIC Enterococcus faecalis (GC 4552) (Enterococcus sp.; Enterococcus faecalis (GC 4552)): 32 µg/mL (≈ 20.7 µM)
MIC Enterococcus faecalis (GC 4553) (Enterococcus sp.; Enterococcus faecalis (GC 4553)): 16 µg/mL (≈ 10.4 µM)
MIC Enterococcus faecalis (GC 4554) (Enterococcus sp.; Enterococcus faecalis (GC 4554)): 32 µg/mL (≈ 20.7 µM)
MIC Enterococcus faecalis (GC 6189) (Enterococcus sp.; Enterococcus faecalis (GC 6189)): 32 µg/mL (≈ 20.7 µM)
MIC Enterococcus faecium (GC 2243) (Enterococcus sp.; Enterococcus faecium (GC 2243)): 16 µg/mL (≈ 10.4 µM)
MIC Enterococcus faecium (GC 4556) (Enterococcus sp.; Enterococcus faecium (GC 4556)): 32 µg/mL (≈ 20.7 µM)
MIC Enterococcus faecium (GC 4557) (Enterococcus sp.; Enterococcus faecium (GC 4557)): 32 µg/mL (≈ 20.7 µM)
MIC Enterococcus avium (GC 4558) (Enterococcus sp.; [1]): 32 µg/mL (≈ 20.7 µM)
MIC Enterococcus faecalis (ATCC 29212) (Enterococcus sp.; [1]): 32 µg/mL (≈ 20.7 µM)
MIC Enterococcus faecalis (GC 2242) (Enterococcus sp.; [1]): 32 µg/mL (≈ 20.7 µM)
MIC Enterococcus faecalis (GC 2691) (Enterococcus sp.; [1]): 32 µg/mL (≈ 20.7 µM)
MIC Enterococcus faecalis (GC 3059) (Enterococcus sp.; [1]): 32 µg/mL (≈ 20.7 µM)
MIC Enterococcus faecalis (GC 4552) (Enterococcus sp.; [1]): 32 µg/mL (≈ 20.7 µM)
MIC Enterococcus faecalis (GC 4553) (Enterococcus sp.; [1]): 16 µg/mL (≈ 10.4 µM)
MIC Enterococcus faecalis (GC 4554) (Enterococcus sp.; [1]): 32 µg/mL (≈ 20.7 µM)
MIC Enterococcus faecalis (GC 6189) (Enterococcus sp.; [1]): 32 µg/mL (≈ 20.7 µM)
MIC Enterococcus faecium (GC 2243) (Enterococcus sp.; [1]): 16 µg/mL (≈ 10.4 µM)
MIC Enterococcus faecium (GC 4556) (Enterococcus sp.; [1]): 32 µg/mL (≈ 20.7 µM)
MIC Enterococcus faecium (GC 4557) (Enterococcus sp.; [1]): 32 µg/mL (≈ 20.7 µM)
MIC Escherichia coli (ATCC 25922) (Escherichia coli; Escherichia coli (ATCC 25922)): >64 µg/mL
MIC Escherichia coli (GC 4559) (Escherichia coli; Escherichia coli (GC 4559)): >64 µg/mL
MIC Escherichia coli (GC 4560) (Escherichia coli; Escherichia coli (GC 4560)): 32 µg/mL (≈ 20.7 µM)
MIC Staphylococcus aureus (ATCC 29213) (Staphylococcus sp.; strain ATCC 29213): 32 µg/mL (≈ 20.7 µM)
MIC Staphylococcus aureus (GC 1131) (Staphylococcus sp.; strain GC 1131): 32 µg/mL (≈ 20.7 µM)
MIC Staphylococcus aureus (GC 3051) (Staphylococcus sp.; strain GC 3051): 32 µg/mL (≈ 20.7 µM)
MIC Staphylococcus aureus (GC 3053) (Staphylococcus sp.; strain GC 3053): 32 µg/mL (≈ 20.7 µM)
MIC Staphylococcus aureus (GC 4541) (Staphylococcus sp.; strain GC 4541): 32 µg/mL (≈ 20.7 µM)
MIC Staphylococcus aureus (GC 4542) (Staphylococcus sp.; strain GC 4542): 32 µg/mL (≈ 20.7 µM)
MIC Staphylococcus aureus-SMITH (GC 4543) (Staphylococcus sp.; strain GC 4543): 32 µg/mL (≈ 20.7 µM)
MIC Staphylococcus aureus (GC 4544) (Staphylococcus sp.; strain GC 4544): 32 µg/mL (≈ 20.7 µM)
MIC Staphylococcus aureus (GC 4545) (Staphylococcus sp.; strain GC 4545): 32 µg/mL (≈ 20.7 µM)
MIC Coagulase Negative Staphylococcus (GC 4547) (Staphylococcus sp.; strain GC 4547): 32 µg/mL (≈ 20.7 µM)
MIC Coagulase Negative Staphylococcus (GC 4548) (Staphylococcus sp.; strain GC 4548): 16 µg/mL (≈ 10.4 µM)
MIC Coagulase Negative Staphylococcus (GC 4549) (Staphylococcus sp.; strain GC 4549): 32 µg/mL (≈ 20.7 µM)
MIC Coagulase Negative Staphylococcus (GC 4551) (Staphylococcus sp.; strain GC 4551): 32 µg/mL (≈ 20.7 µM)
MIC Coagulase Negative Staphylococcus (GC 6257) (Staphylococcus sp.; strain GC 6257): 16 µg/mL (≈ 10.4 µM)
MIC Streptococcus agalactiae (GC 4564) (Streptococcus sp.; Streptococcus agalactiae (GC 4564)): 0.12 µg/mL (≈ 0.0777 µM)
MIC Streptococcus pneumoniae (ATCC 6301) (Streptococcus sp.; Streptococcus pneumoniae (ATCC 6301)): <0.06 µg/mL
MIC Streptococcus pneumoniae (GC 1894) (Streptococcus sp.; Streptococcus pneumoniae (GC 1894)): <0.06 µg/mL
MIC Streptococcus pneumoniae (GC 4565) (Streptococcus sp.; Streptococcus pneumoniae (GC 4565)): <0.06 µg/mL
MIC Streptococcus pyogenes (GC 4563) (Streptococcus sp.; Streptococcus pyogenes (GC 4563)): 0.25 µg/mL (≈ 0.162 µM)
MIC Streptococcus agalactiae (GC 4564) (Streptococcus sp.; [1]): 0.12 µg/mL (≈ 0.0777 µM)
MIC Streptococcus pneumoniae (ATCC 6301) (Streptococcus sp.; [1]): <0.06 µg/mL
MIC Streptococcus pneumoniae (GC 1894) (Streptococcus sp.; [1]): <0.06 µg/mL
MIC Streptococcus pneumoniae (GC 4565) (Streptococcus sp.; [1]): <0.06 µg/mL
MIC Streptococcus pyogenes (GC 4563) (Streptococcus sp.; [1]): 0.25 µg/mL (≈ 0.162 µM)
Compound: CC(c1ccccc1)C1NC(=O)CNC(=O)C(CO)NC(=O)C(C(O)C2CNC(=N)N2C2OC(CO)C(O)C(O)C2O)NC(=O)C(C(O)C2CNC(=N)N2)NC(=O)C(Cc2ccc(OC3OC(CO)C(OC4OC5COC(c6cccc(Oc7cccc(C(F)(F)F)c7)c6)OC5C(O)C4O)C(O)C3O)cc2)NC1=O (stereo not shown) [Example 184]
MIC Staphylococcus haemolyticus (GC 4546) (Staphylococcus sp.; strain GC 4546): 32 µg/mL (≈ 20.7 µM)
